Assay results published in US20020193425A1, “Cancer chemopreventative compounds and compositions and methods of treating cancers” (priority 2001, published 2002).

How the values were obtained:
NB4 [1] = experiment: Cytotoxicity, viability by Trypan blue exclusion; assay type: cell-based
From the text: (§1) All cells were routinely tested for mycoplasma contamination.
(§2) Cellular viability was monitored by Trypan blue exclusion.

[2] = Cytotoxicity, viability by Trypan blue exclusion; assay type: cell-based; details: human, NB4; four days; read-out: Cytotoxicity (IC50, ng/ml)
From the text: as §1, §2

DHL-6 = experiment: Cytotoxicity, viability by Trypan blue exclusion; assay type: cell-based; details: for Cytotoxicity (IC50, ng/ml): DHL-6, four days
From the text: as §1, §2

Daudi = experiment: Cytotoxicity, viability by Trypan blue exclusion; assay type: cell-based; details: for Cytotoxicity (IC50, ng/ml): Daudi, four days
From the text: as §1, §2

NB4 [3] = experiment: NSE expression (monocyte marker); assay type: cell-based; details: 4 days
Description: (§3) Cell lines were tested using a 4-day incubation protocol, unless otherwise specified.
(§4) 2) NBT/NSE/SE. Evaluation of NBT reduction was used to assess the ability of sample-treated cells to produce superoxide when challenged with TPA. A 1:1 (v/v) mixture of a cell suspension (10^6 cells) and TPA/NBT solution (2 mg/ml NBT and 1 μg/ml TPA in phosphate buffer saline (PBS)) was incubated for 1 h at 37° C. Then, cells were smeared on glass slides, and counterstained with 0.3% (w/v) safranin O in methanol. Positive cells reduce NBT yielding intracellular black-blue formazan deposits. NSE/SE are monocytic/granulocytic esterases that can be visualized by cytochemical staining using commercially available kits (α-Naphthyl Acetate Esterase and Naphthol As-D Chloroacetate Esterase kits, Sigma Chemical Co., St. Louis, Mo.). Positive-stained cells were quantified by microscopic examination of >200 cells. Results were expressed as a percentage of positive cells.
(§5) Concentration-dependent effect of brusatol on: (a) NBT-reduction (monocyte/granulocyte marker) of HL-60, K562, NB4, U937, and BV173 and (b) NSE expression (monocyte marker) in K562, Kasumi-1, NB4, and BV173 cells, respectively. Data points are the mean of duplicate samples.

K562 [4] = experiment: NSE expression (monocyte marker); assay type: cell-based; details: 4 days
Description: as §3, §4, §5

Kasumi-1 = experiment: NSE expression (monocyte marker); assay type: cell-based; details: 4 days
Description: as §3, §4, §5

BV173 [5] = experiment: NSE expression (monocyte marker); assay type: cell-based; details: 4 days
Description: as §3, §4, §5

U937 = experiment: Cell cycle effects, DNA content by flow cytometry; assay type: cell-based; details: Brusatol (25 ng/ml), 24 h
Description: (§6) About 10^6 cells from each sample were collected and washed twice with ice-cold PBS, fixed in 70% ethanol, and stored at 4° C. until analysis. The cells were stained with PI (50 μg/ml), treated with DNase-free RNase (10 μg/ml), and subjected to DNA content analysis using an EPICS Coulter flow cytometer. At least 10,000 cells were counted for each sample. The percentage of apoptotic cells was calculated by measuring the area under the sub-diploid (DNA <2 N) peak in the plot of cell number against cellular DNA content.
(§7) Cells were treated with solvent or brusatol (25 ng/ml) for 24 h, fixed in ethanol and stained with PI for flow cytometric analysis as described under “Materials and methods”. At least 10,000 cells were counted. Results are presented as the mean of triplicate samples (±standard deviation). G1=Gap1, S=Synthesis, G2/M=Gap2+Mitosis, Ap=sub-G1 apoptotic peak.

NB4 [6] = experiment: Cell cycle effects, DNA content by flow cytometry; assay type: cell-based; details: Brusatol (25 ng/ml), 24 h
Description: as §6, §7

K562 [7] = experiment: Cell cycle effects, DNA content by flow cytometry; assay type: cell-based; details: Brusatol (25 ng/ml), 24 h
Description: as §6, §7

BV173 [8] = experiment: Cell cycle effects, DNA content by flow cytometry; assay type: cell-based; details: Brusatol (25 ng/ml), 24 h
Description: as §6, §7

HL-60 cells = experiment: In vivo hollow fiber test
Description: As a preliminary test of in vivo efficacy, a hollow fiber study was performed. The in vivo hollow fiber test was performed using literature procedures with some modifications (see M. G. Hollingshead et al., Life Sic., 57, pages 131-141 (1995)). HL-60 cells were cultured in RPMI 1640 medium and collected by centrifugation and resuspended in conditioned medium at a concentration of 2.5×10^6 cells/ml. Fibers filled with cells were incubated in 6-well plates overnight at 37° C. in a 5% CO2 atmosphere. Female athymic NCr nu/nu mice at 5-6 weeks of age were obtained from Frederick Cancer Research Facility. Each mouse hosted up to 6 fibers, which were cultured in two physiologic compartments. For intraperitoneal implants, a small incision was made through the skin and musculature of the dorsal abdominal wall, the fiber samples were inserted into the peritoneal cavity in a craniocaudal direction, and the incision was closed with skin staples. For subcutaneous implants, a small skin incision was made at the nape of the neck to allow insertion of an 11-gauge tumor implant trocar. The trocar, containing the hollow fiber samples, was inserted caudally through the subcutaneous tissues and fibers were deposited during withdrawal of the trocar. The incision was closed with a skin staple.
In preliminary studies, cell growth was assessed with fibers containing various cell densities. […] For treatment protocols, brusatol was dissolved in PBS. Mice were randomized into 7 groups: PBS vehicle control group (6 mice per group); 0.25, 0.5, 1.25, 2.5, 5, 12.5 mg/kg of brusatol (3 mice per group). Test compound brusatol was administered once daily by intraperitoneal injection from day 3-6 after implantation. Body weights were measured daily.
On day 7, mice were sacrificed and fibers were retrieved. […] Aliquots (150 μl) of extracted MTT formazan were transferred to Individual wells of 96-well plates and assessed for optical density at a wavelength of 540 nm. The effect of the treatment regimen was determined by the net growth percentage of the cells relative to change in […].

Q: What does the source list for `COC(=O)[C@@]12OC[C@]34[C@H]([C@@H](O)[C@@H]1O)[C@@]1(C)CC(=O)C(O)=C(C)[C@@H]1C[C@H]3OC(=O)[C@H](OC(=O)C=C(C)C)[C@@H]24` [compound 1, brusatol]?
A: Cytotoxicity (IC50, ng/ml) (NB4 [1]; NB4, four days): 15 ± 0.2 ng/mL; cytotoxicity (NB4 [1]; human, 48 h, 25 ng/ml): 100%; IC50 at 4 days [2]: < 25 ng/mL; Cytotoxicity (IC50, ng/ml) (DHL-6; listed as Brusatol): 5 ± 0.5 ng/mL; Cytotoxicity (IC50, ng/ml) (DHL-6; listed as brusatol): less than 25 ng/ml; cytotoxicity (DHL-6; human, 48 h, 25 ng/ml): 100%; Cytotoxicity (IC50, ng/ml) (Daudi; listed as Brusatol): 5 ± 0.3 ng/mL; Cytotoxicity (IC50, ng/ml) (Daudi; listed as brusatol): less than 25 ng/ml; cytotoxicity (Daudi; human, 48 h, 25 ng/ml): 100%; upregulated expression of NSE (NB4 [3]): approximately 50%; upregulated expression of NSE (K562 [4]): approximately 50%; upregulated expression of NSE (Kasumi-1): approximately 50%; upregulated expression of NSE (BV173 [5]): approximately 35%; G1 (U937): G1 = 45.4 ± 1.8; G2/M (U937): G2/M = 8.0 ± 1.6; S (U937): S = 46.6 ± 0.2; Ap (sub-G1 apoptotic peak) (NB4 [6]): Ap = 37.2 ± 0.8; G1 (NB4 [6]): G1 = 45.3 ± 0.8; G2/M (NB4 [6]): G2/M = 7.3 ± 0.7; S (NB4 [6]): S = 47.4 ± 0.1; G1 (K562 [7]): G1 = 46.2 ± 0.6; G2/M (K562 [7]): G2/M = 5.6 ± 0.4; S (K562 [7]): S = 48.2 ± 0.3; Ap (sub-G1 apoptotic peak) (BV173 [8]): Ap = 15.6 ± 0.2; G1 (BV173 [8]): G1 = 57.0 ± 0.4; G2/M (BV173 [8]): G2/M = 7.1 ± 0.1; S (BV173 [8]): S = 35.9 ± 0.6; inhibition at s.c. site (HL-60 cells; HL-60 hollow fibers, 5 mg/kg): 80.8%; inhibitory percentage at s.c. site (HL-60 cells; HL-60 hollow fibers, doses from 0.25 mg/kg, below 5 mg/kg): around 25%; lethality (HL-60 cells; mice, 12.5 mg/kg): lethal
